# Experiments:
# [1] = Phase-transfer extraction of the hyperpolarized product into water: 13C signal enhancement and amount transferred; type: physicochemical
# Description: After the field cycling application, the tube was quickly opened and 0.4 mL of degassed D2O were added; the tube was shaken vigorously for three seconds and then let stand for five seconds, during which phase separation occurred. The water solution was taken by a syringe and transferred into a tube for NMR acquisition.
# [2] = Solubility in water; type: physicochemical; conditions: compared with alkyne A
# Source text: The symmetrical alkyne A, whose formula is reported below, was synthesized by transesterification of the acetylene bis-carboxylic acid bismethyl ester with diethyleneglycol monomethyl ether, in the presence of H2SO4 as catalyst.
Compound,"quantity transferred into the water phase ([1]; CDCl3/acetone-d6 (6:1) versus D2O, equal volumes)",solubility in water [2],"transfer to the water phase ([1]; after hydrolysis with 0.25 M NaOH in D2O, CDCl3/acetone-d6 6:1)"
COCCOCCOC(=O)/C=C\C(=O)OCCOCCOC [B],about 10 % of the total,higher than that of the alkyne A,–
O=C(O)CCC(=O)O [succinic acid],–,–,All the succinic acid was transferred to the water phase

# From patent US8961933B2, “Process for the preparation of aqueous solutions of hyperpolarized molecules” (Bracco Imaging S.p.A., priority 2008, dated 2015)
